From PubChem BioAssay AID1963438 (Molecular Pharmacology Branch, DTP, NCI, 2024)
pIC50: −log10 of the molar value.

Tested on: NCI-H510 multicellular tumor spheroid growth, % test/control
Assay: Anticancer human tumor NCI-H510 cell line growth inhibition [Asc];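 also: spheroids exposed to agents for 7 days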;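 as to viability, T/C: 100% = DMSO vehicle control wells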
Conditions: for pIC50: curve of first compound; for viability, T/C: stronger effect = lower value
Procedure: Multicellular complex tumor spheroid response to apoptosis pathway targeting inhibitors Alrizomadlin, Pelcitoclax, and Dasminapant in combination with a variety of drugs and investigational agents in selected tumor cell lines
The MDM2 inhibitor alrizomadlin, the Bcl-2/Bcl-xL inhibitor pelcitoclax, and the IAPs inhibitor dasminapant were evaluated both individually and in combination with standard of care and investigational anticancer small molecules within a complex spheroid model of solid tumors. . Complex spheroids include a stromal component modeled by human endothelial cells (HUVEC) and fibroblasts modeled by human mesenchymal stem cells (MSCs). The concentration ranges selected for each drug and investigational agent were based upon clinically achievable concentrations if the clinical Cmax of the agent was known.
Compounds. The drugs and investigational agents: alrizomadlin (APG-115; NSC831270), pelcitoclax (APG-1252; NSC835773), dasminapant (APG-1387;NSC834197), TAK-243 (NSC785004), copanlisib (NSC809693), olaparib (NSC753686), talazoparib (NSC767125), cobimetinib (NSC 768068), eltanexor (KPT-8602, NSC 794443), abemaciclib (NSC 768073), sotorasib (NSC818433), adagrasib (NSC 831453), MRTX-1133 (NSC 836407), Iadademestat (ORY1001, NSC 806812), and RMC-4630 (NSC839698), were obtained from the NCI Developmental Therapeutics Program Chemical Repository. The FDA-approved anticancer drug set is available from the Developmental Therapeutics Program at https://dtp.cancer.gov/organization/dscb/obtaining/available plates.htm. […] The stock solutions were prepared in dimethyl sulfoxide (DMSO, Sigma-Aldrich, St. Louis, MO, cat. D2650) at 800-fold the tested concentration and stored at -70 degrees C prior to their use. All drugs and investigational agents were tested over a range starting from a high concentration at or near the clinical Cmax and decreasing in half-log increments. If the clinical Cmax for an agent had not been determined, the highest concentration tested was 10 microM.
The patient-derived cancer (PDC) cell lines include five colon adenocarcinomas: 186277-243-T-J2-PDC, 616215-338-R-J1-PDC, 439559-082-T-J2-PDC, 463943-066-T-J2-PDC, and 519858-162-T-J1-PDC; three pancreatic carcinomas: 323965-272-R-J2-PDC, 521955-158-R6-J3-PDC, and 521955-158-R2-J5-PDC; two uterine sarcomas: 327498-152-R-J2-PDC and 993429-296-R-J1-PDC; two rhabdomyosarcomas: 755483-174-R-J1-PDC and 772245-204-R-J1-PDC; two soft tissue sarcomas: 126254-015-R-J1-PDC and 494315-158-R-J1-PDC; two malignant fibrous histiocytomas: 317291-083-R-J1-PDC and 596521-263-R-J1-PDC; two breast carcinomas: 171881-019-R-J1-PDC and 885512-296-R-J2-PDC; and one ovarian carcinoma: 6556581-035-R-J-PDC were obtained from the NCI PDMR, (https://pdmr.cancer.gov). The established cell lines HSSY-2 synovial sarcoma (RRID:CVCL 8719), SYO-1 synovial sarcoma (RRID:CVCL_7146), MPNST malignant peripheral neural sheath tumor were obtained from the Sloan Kettering Institute. The following established cell lines were purchased from the American Type Culture Collection (ATCC, Manassas, VA), Sor the received from the NCI repository:, PANC-1 pancreatic carcinoma (CRL-1469, RRID:CVCL_0480), OVCAR-5 ovarian carcinoma (RRID:CVCL_1628), OVCAR-8 ovarian carcinoma (RRID:CVCL_1629), , MCF-7 breast carcinoma (CRL-12584, RRID:CVCL_0031), MDA-MB-231 breast carcinoma (CRL-12532, RRID:CVCL_0062), NCI-H1876 small cell lung carcinoma (CRL-5902, RRID:CVCL_1503), NCI-H510A small cell lung carcinoma (HTB-184, RRID:CVCL_1565), NCI-H1417 (CRL-5869, RRID:CVCL_1469), and NCI-H196 small cell lung carcinoma (CRL-5823, RRID:CVCL_1509). Dr. Peter Houghton (Greehey Children's Cancer Research Institute, University of Texas Health Science Center, San Antonio, TX) provided Rh-18 rhabdomyosarcoma (RRID:CVCL_1659). Pooled donor human umbilical vein endothelial cells (HUVEC, Lonza, cat. CC-2519) and human mesenchymal stem cells (hMSC, Lonza, cat. PT-2501) were purchased from Lonza (Walkersville, MD).
Cell Culture. […]

[1] = second compound 0.03 µM, first compound 0.0316 µM
[2] = second compound 0.03 µM, first compound 0.1 µM
[3] = second compound 0.0949 µM, first compound 0.0316 µM
[4] = second compound 0.0949 µM, first compound 0.1 µM
[5] = second compound 0.3 µM, first compound 0.0316 µM
[6] = second compound 0.3 µM, first compound 0.1 µM
[7] = second compound 0.949 µM, first compound 0.0316 µM
[8] = second compound 0.949 µM, first compound 0.1 µM
[9] = second compound 3 µM, first compound 0.0316 µM
[10] = second compound 3 µM, first compound 0.1 µM

`Cn1ncnc1[C@H]1c2n[nH]c(=O)c3cc(F)cc(c23)N[C@@H]1c1ccc(F)cc1` + CCN1C(C(=O)NC23CCC(C(=O)O)(CC2)CC3)C(c2cccc(Cl)c2F)C2(C(=O)Nc3cc(Cl)ccc32)C12CCCCC2 gave a pIC50 (second compound 0.03 µM) of 8.11, a pIC50 (second compound 0.0949 µM) of 8.04 and a pIC50 (second compound 0.3 µM) of 7.81. The pIC50 (second compound 0.949 µM) was 7.98, the pIC50 (second compound 3 µM) was 7.87 and the viability, T/C (second compound 0.03 µM, first compound 0.000316 µM) was 114%. It also gave a viability, T/C (second compound 0.03 µM, first compound 0.001 µM) of 93.8%, a viability, T/C (second compound 0.03 µM, first compound 0.00316 µM) of 77.3% and a viability, T/C (second compound 0.03 µM, first compound 0.01 µM) of 49.5%. It also gave a viability, T/C [1] of 6.92%, a viability, T/C [2] of 18.1% and a viability, T/C (second compound 0.0949 µM, first compound 0.000316 µM) of 105%. The viability, T/C (second compound 0.0949 µM, first compound 0.001 µM) was 97.6%, the viability, T/C (second compound 0.0949 µM, first compound 0.00316 µM) was 95.4% and the viability, T/C (second compound 0.0949 µM, first compound 0.01 µM) was 45.4%. The viability, T/C [3] was 14.7%, the viability, T/C [4] was 10.9% and the viability, T/C (second compound 0.3 µM, first compound 0.000316 µM) was 104%. For the same compound, the viability, T/C (second compound 0.3 µM, first compound 0.001 µM) was 128%, the viability, T/C (second compound 0.3 µM, first compound 0.00316 µM) was 96.6% and the viability, T/C (second compound 0.3 µM, first compound 0.01 µM) was 75.8%. It also gave a viability, T/C [5] of 9.76%, a viability, T/C [6] of 5.7% and a viability, T/C (second compound 0.949 µM, first compound 0.000316 µM) of 92.5%. For the same compound, the viability, T/C (second compound 0.949 µM, first compound 0.001 µM) was 118%, the viability, T/C (second compound 0.949 µM, first compound 0.00316 µM) was 100% and the viability, T/C (second compound 0.949 µM, first compound 0.01 µM) was 50.9%. The viability, T/C [7] was 13.4%, the viability, T/C [8] was 7.16% and the viability, T/C (second compound 3 µM, first compound 0.000316 µM) was 109%. The viability, T/C (second compound 3 µM, first compound 0.001 µM) was 88.8%, the viability, T/C (second compound 3 µM, first compound 0.00316 µM) was 102% and the viability, T/C (second compound 3 µM, first compound 0.01 µM) was 64%. The viability, T/C [9] was 6.31% and the viability, T/C [10] was 10.2%.
`O=C(c1cc(Cc2n[nH]c(=O)c3ccccc23)ccc1F)N1CCN(C(=O)C2CC2)CC1` + CCN1C(C(=O)NC23CCC(C(=O)O)(CC2)CC3)C(c2cccc(Cl)c2F)C2(C(=O)Nc3cc(Cl)ccc32)C12CCCCC2 gave a pIC50 (second compound 0.03 µM) of 5.88, a pIC50 (second compound 0.0949 µM) of 5.69 and a pIC50 (second compound 0.3 µM) of 5.87. For the same compound, the pIC50 (second compound 0.949 µM) was 5.58, the pIC50 (second compound 3 µM) was 5.59 and the viability, T/C [1] was 77.3%. It also gave a viability, T/C [2] of 101%, a viability, T/C (second compound 0.03 µM, first compound 0.316 µM) of 100% and a viability, T/C (second compound 0.03 µM, first compound 1 µM) of 60.9%. The viability, T/C (second compound 0.03 µM, first compound 3.16 µM) was 18.1%, the viability, T/C (second compound 0.03 µM, first compound 10 µM) was 8.44% and the viability, T/C [3] was 81.3%. The viability, T/C [4] was 106%, the viability, T/C (second compound 0.0949 µM, first compound 0.316 µM) was 105% and the viability, T/C (second compound 0.0949 µM, first compound 1 µM) was 77.5%. The viability, T/C (second compound 0.0949 µM, first compound 3.16 µM) was 32.7%, the viability, T/C (second compound 0.0949 µM, first compound 10 µM) was 19.7% and the viability, T/C [5] was 79.8%. For the same compound, the viability, T/C [6] was 102%, the viability, T/C (second compound 0.3 µM, first compound 0.316 µM) was 95.7% and the viability, T/C (second compound 0.3 µM, first compound 1 µM) was 57%. It also gave a viability, T/C (second compound 0.3 µM, first compound 3.16 µM) of 25.5%, a viability, T/C (second compound 0.3 µM, first compound 10 µM) of 8.82% and a viability, T/C [7] of 109%. It also gave a viability, T/C [8] of 99.8%, a viability, T/C (second compound 0.949 µM, first compound 0.316 µM) of 97.5% and a viability, T/C (second compound 0.949 µM, first compound 1 µM) of 86.7%. It also gave a viability, T/C (second compound 0.949 µM, first compound 3.16 µM) of 42.5%, a viability, T/C (second compound 0.949 µM, first compound 10 µM) of 5.78% and a viability, T/C [9] of 94.5%. The viability, T/C [10] was 78.1%, the viability, T/C (second compound 3 µM, first compound 0.316 µM) was 95.1% and the viability, T/C (second compound 3 µM, first compound 1 µM) was 93.3%. For the same compound, the viability, T/C (second compound 3 µM, first compound 3.16 µM) was 40.8% and the viability, T/C (second compound 3 µM, first compound 10 µM) was 22.3%.
